According to patent publication US8404664B2, “Phosphonated Rifamycins and uses thereof for the prevention and treatment of bone and joint infections” (Targanta Therapeutics, Inc., priority 2005, dated 2013):
≈ marks a conversion by molar mass, not a printed value. Where “and” joins values, the source holds several entries; their conditions need not be identical. Equal entries are not always repeated.

Tests used:
S. aureus ATCC 13709 [1] = assay: Antibacterial susceptibility (MIC), NCCLS broth microdilution; format: cell-based; conditions: for MIC: Staphylococcus aureus, ATCC13709, read-out: Minimum inhibitory concentration, S. aureus ATCC 13709; for Antibacterial activity (in words, summary of Table 1): summary over the strains of Table 1
Method: (§1) Susceptibility of S. aureus strains to the known antibiotics and synthesized compounds was determined by following the guidelines set by NCCLS (M26-A). Compounds were diluted two-fold serially in DMSO and transferred to cation-adjusted Mueller Hinton broth (CAMHB; Becton Dickinson). 50 μL of compounds diluted in CAMHB was mixed with 100 μL of bacteria diluted in CAMHB in 96-well microtiter plates. The final concentration of micro-organisms in the assay was 5×10^5 c.f.u. per mL and the final concentration of DMSO in the assay was 1.25%. Assays were set up in duplicate and incubated at 37° C. for 18 h. The lowest concentration of compound that inhibited visible growth was reported as the minimum inhibitory concentration (MIC).

[2] = test system: S. aureus ATCC 43300 (Fluoroquinolone sensitive MRSA); assay: as above; format: cell-based; conditions: for MIC: Staphylococcus aureus, read-out: Minimum inhibitory concentration, S. aureus ATCC 43300
Method: as §1

S. aureus RN4220 = assay: as above; format: cell-based; conditions: CAMHB, 37° C., 18 h; for MIC: Staphylococcus aureus, RN4220, read-out: Minimum inhibitory concentration, S. aureus RN4220
Method: as §1

S. aureus ATCC 13709 [3] = assay: Antibacterial susceptibility (MIC) in the presence of serum; format: cell-based; conditions: for MIC: Staphylococcus aureus, ATCC13709, 18 h
Method: as §1
Susceptibility testing experiments were also carried out in the presence of serum.
These experiments were carried out similar to the susceptibility testing with the following modifications. 75 μL of compounds diluted in CAMHB was mixed with 75 μL of bacteria diluted in 100% serum from any given source (commercial pooled mouse serum (MS) and human serum (HS), Equitech-Bio Inc.) or diluted in 8% purified human serum albumin (HSA) (Calbiochem). The final concentration of animal serum in the assay was 50% and the final concentration of purified human serum albumin in the assay was 4%; the concentrations of all other components were identical to those described for susceptibility testing.

[4] = test system: E. coli LBB925 (tolC mutant); assay: Antibacterial susceptibility (MIC), NCCLS broth microdilution; format: cell-based; conditions: for MIC: Escherichia coli, read-out: Minimum inhibitory concentration, E. coli LBB925; for Minimum inhibitory concentration, E. coli LBB925: tolC mutant
[5] = test system: S. aureus ATCC 13709 Novobiocin resistant mutant (bone infection); assay: Prophylactic efficacy in rat model of S. aureus bone infection; format: in vivo; conditions: rat tibia 24 h postinfection
Method: Specifically, a spontaneous Novobiocin resistant mutant strain of S. aureus ATCC 13709 (a clinical osteomyelitis isolate), was grown overnight at 37° C. in brain heart infusion broth (BHIB). After 16 h of growth, cells were subcultured into fresh BHIB and incubated for 4 to 5 h at 37° C. The cells were washed twice with phosphate-buffered saline (PBS) and resuspended in BHIB supplemented with 10% (vol./vol.) fetal bovine serum at a density of approximately 10^10 colony forming units (CFU)/ml (based upon turbidimetry). The suspension was aliquoted and a portion was used to check the CFU count. The culture was stored frozen (−80° C.) and was used without subculture. For use as an inoculum the culture was thawed, diluted in PBS and kept in an ice bath until it was used.
Animals were infected as described by O'Reilly et al. (Antimicrobial Agents and Chemotherapy (1992), 36(12): 2693-97) to generate the bone infection. Female CD rats (age, 57 to 70 days; n=5/group; Charles River, St-Constant, Canada) were anaesthetized by isofluorane before and during the surgery. Following complete induction of anesthesia, the rat was placed ventral side up and hair was shaved from the surgical site. The skin over the leg was cleaned and disinfected (proviodine-ethanol 70%). A longitudinal incision below the knee joint was made in the sagital plane. The incision was made over the bone below the “knee joint” (tibia head or condyle) but not completely extending to the ankle. A high speed drill fitted with a 2 mm bulb bit was used to drill a hole into the medullar cavity of the tibia. Rats were injected intra-tibially with 0.05 ml 5% sodium morrhuate (sclerosing agent) and then with 0.05 ml of S. aureus suspension (ca. 2×10^7 CFU/rat). The hole was sealed by applying a small amount of dry dental cement which immediately absorbs fluids and adheres to the site. The wound was closed using 3 metal skin clips. Moxifloxacin (as a positive control) was injected once at 10 mg/kg intravenously 1 h postinfection in saline, while the Rifamycin derived prodrugs (prepared in 0.9% saline) were injected at the dose indicated in Table 3 as a single intravenous bolus at different time points prior to the infection.
Infected rats were sacrificed by CO2 asphyxiation 24 h postinfection to monitor the bacterial CFU count. Infected tibiae were removed, dissected free of soft tissue, and weighed. The bones were ground, resuspended in 5 ml 0.9% NaCl, serially diluted and processed for quantitative cultures. For compounds 50, 68 and 81, 1 ml of the 0.9% NaCl solution was added to 50 mg of charcoal before serial dilutions. Treatment efficacy was measured in terms of Log viable bacteria (Log CFU per gram of bone). […] The limit of detection is 2 Log CFU. […] Differences were considered significant when the P value was <0.05 when comparing treated infected animals to the untreated infected ones. The doses used, the amount of time separating the treatment from the time of infection and the treatment outcomes are shown in Table 3.

[6] = test system: S. aureus BK85 (Fluoroquinolone resistant MRSA); assay: Antibacterial susceptibility (MIC), NCCLS broth microdilution; format: cell-based; conditions: for MIC: Staphylococcus aureus, read-out: Minimum inhibitory concentration, S. aureus BK85
Method: as §1

[7] = test system: S. aureus ATCC 13709 Novobiocin and Rifampicin resistant variant; assay: microbe, parasite or virus in culture; format: cell-based; conditions: for Minimum inhibitory concentration, S. aureus ATCC 13709 variant: Novobiocin and Rifampicin resistant variant
Method: as §1

[8] = Regeneration of drug from bone powder-bound prodrug; format: in vitro ADME; conditions: for % Conversion of bone-bound prodrug to parent drug: 24 h incubation, 37° C.
Method: Amounts of parent drug “regenerated” from the phosphonated prodrug were measured as follows. Washed bone powder-bound prodrugs from the above experiment were resuspended in 400 μL PBS+2% DMSO or in 400 μL 50% (v/v in PBS+2% DMSO) human or rat serum. The suspension was incubated overnight at 37° C., centrifuged at 13,000 rpm for 2 min and the supernatant was recovered. The amount of regenerated parent drug in the supernatant was determined by measurements using the microbiological assay that was previously described for the prodrugs themselves. The amount of prodrug was deduced from standard curves of known amounts of parent drug that were used as reference for each experiment.

[9] = read-out: Minimum inhibitory concentration, S. aureus ATCC 13709 + 50% Human Serum
[10] = read-out: Minimum inhibitory concentration, S. aureus ATCC 13709 + 50% Mouse Serum
[11] = read-out: Minimum inhibitory concentration, S. aureus ATCC 13709 + 50% Rat Serum

SMILES	MIC (S. aureus ATCC 13709 [1])	MIC [2]	MIC (S. aureus RN4220)	MIC (S. aureus ATCC 13709 [3]; [9])	MIC (S. aureus ATCC 13709 [3]; [10])	MIC (S. aureus ATCC 13709 [3]; [11])	MIC [4]	MIC [6]	Minimum inhibitory concentration, S. aureus ATCC 13709 (S. aureus ATCC 13709 [1])	Antibacterial activity (in words, summary of Table 1) (S. aureus ATCC 13709 [1])	Minimum inhibitory concentration, S. aureus ATCC 43300 [2]	Minimum inhibitory concentration, S. aureus BK85 [6]	Minimum inhibitory concentration, S. aureus RN4220 (S. aureus RN4220)	Activity against the Rifampicin resistant variant of S. aureus ATCC13709 (in words) [7]	Minimum inhibitory concentration, S. aureus ATCC 13709 variant [7]	Minimum inhibitory concentration, S. aureus ATCC 13709 + 50% Human Serum (S. aureus ATCC 13709 [3])	Minimum inhibitory concentration, S. aureus ATCC 13709 + 50% Mouse Serum (S. aureus ATCC 13709 [3])	Minimum inhibitory concentration, S. aureus ATCC 13709 + 50% Rat Serum (S. aureus ATCC 13709 [3])	Minimum inhibitory concentration, E. coli LBB925 [4]	further results
CO[C@H]1/C=C/O[C@@]2(C)Oc3c(C)c(O)c4c(=O)c(c5oc6cc(N7CCN(CCO)CC7)cc(O)c6nc-5c4c3C2=O)NC(=O)/C(C)=C\C=C\[C@H](C)[C@H](O)[C@@H](C)[C@@H](O)[C@@H](C)[C@H](OC(C)=O)[C@@H]1C [Compound 56, 1′,4-Didehydro-1-deoxy-1,4-dihydro-3′-hydroxy-5′-[4-(2-hydroxyethyl)-1-piperazinyl]-1-oxorifamycin VIII]	0.25 ng/mL (≈ 0.269 nM)	0.25 ng/mL (≈ 0.269 nM)	0.25 ng/mL (≈ 0.269 nM)	1 ng/mL	2 ng/mL	2 ng/mL	8 µg/mL (≈ 8610 nM)	–	–	–	–	–	–	–	–	–	–	–	–	Measured bacterial titer ([5]; single dose 20 mg/kg parent drug equivalent, 2 days prior to infection): 3.61 ± 1.57 Log CFU/g of bone
CO[C@H]1/C=C/O[C@@]2(C)Oc3c(C)c(O)c4c(O)c(c(/C=N/N5CCN(C)CC5)c(O)c4c3C2=O)NC(=O)/C(C)=C\C=C\[C@H](C)[C@H](O)[C@@H](C)[C@@H](O)[C@@H](C)[C@H](OC(C)=O)[C@@H]1C [Rifampicin, reference compound]	8 ng/mL (≈ 9.72 nM)	8 ng/mL (≈ 9.72 nM)	8 ng/mL (≈ 9.72 nM)	62 ng/mL	125 ng/mL	125 ng/mL	8 µg/mL (≈ 9720 nM)	8 ng/mL (≈ 9.72 nM)	–	–	–	–	–	–	–	–	–	–	–	MIC ([7]; Staphylococcus aureus, ATCC13709, read-out: Minimum inhibitory concentration, S. aureus ATCC 13709 variant): > 128 µg/mL
CCN(CC)CC.CCN(CC)CC.CO[C@H]1/C=C/O[C@@]2(C)Oc3c(C)c(O)c4c(=O)c(c5oc6cc(N7CCN(CC(C)C)CC7)cc(O)c6nc-5c4c3C2=O)NC(=O)/C(C)=C\C=C\[C@H](C)[C@H](OC(=O)CCC(=O)NCCC(=O)NC(P(=O)(O)O)P(=O)(O)O)[C@@H](C)[C@@H](O)[C@@H](C)[C@H](OC(C)=O)[C@@H]1C [Compound 78, 21-O-(3-(2-((bisphosphonomethyl)carbamoyl)ethylcarbamoyl)propanoyl)-1′,4-Didehydro-1-deoxy-1,4-dihydro-3′-hydroxy-5′-[4-(2-methylpropyl)-1-piperazinyl]-1-oxorifamycin VIII]	–	–	–	–	–	–	–	–	8 µg/mL	near complete loss of activity	8 µg/mL	16 µg/mL	16 µg/mL	complete lack of activity	>128 µg/mL	>128 µg/mL	>128 µg/mL	>128 µg/mL	>128 µg/mL	Regeneration of parent drug once bound to bone (in words) [8]: not able to regenerate; % Conversion of bone-bound prodrug to parent drug ([8]; 50% Rat Serum): 0.01%; % Conversion of bone-bound prodrug to parent drug ([8]; PBS): <lod; Impact of the medium on the rate of regeneration of parent drug (in words) ([8]; serum compared to PBS): significant acceleration
CO[C@H]1/C=C/O[C@@]2(C)Oc3c(C)c(O)c4c(=O)c(c5oc6cc(N7CCNCC7)cc(O)c6nc-5c4c3C2=O)NC(=O)/C(C)=C\C=C\[C@H](C)[C@H](O)[C@@H](C)[C@@H](O)[C@@H](C)[C@H](OC(C)=O)[C@@H]1C [Compound 69, 1′,4-Didehydro-1-deoxy-1,4-dihydro-3′-hydroxy-5′-[1-piperazinyl]-1-oxorifamycin VIII]	0.48 ng/mL (≈ 0.542 nM)	–	–	1.9 ng/mL	1.9 ng/mL	1.9 ng/mL	4 µg/mL (≈ 4520 nM)	0.24 ng/mL (≈ 0.271 nM)	–	–	–	–	–	–	–	–	–	–	–	–
CCN(CC)CC.CCN(CC)CC.CO[C@H]1/C=C/O[C@@]2(C)Oc3c(C)c(O)c4c(c3C2=O)C2=NC3(CCN(CC(C)C)CC3)NC2=C(NC(=O)/C(C)=C\C=C\[C@H](C)[C@H](OC(=O)CCCOC(=O)CCC(=O)NC(P(=O)(O)O)P(=O)(O)O)[C@@H](C)[C@@H](O)[C@@H](C)[C@H](OC(C)=O)[C@@H]1C)C4=O [Compound 54, 21-O-(4-((3-(bisphosphonomethyl)carbamoyl)propanoyloxy)butanoyl)-1′,4-didehydro-1-deoxy-1,4-dihydro-5′-(2-methylpropyl)-1-oxorifamycin XIV]	–	–	–	–	–	–	–	–	64 µg/mL	near complete loss of activity	64 µg/mL	64 µg/mL	64 µg/mL	complete lack of activity	>128 µg/mL	>128 µg/mL	>128 µg/mL	>128 µg/mL	>128 µg/mL	Impact of serum on the MICs (in words) (S. aureus ATCC 13709 [3]): no impact
COc1c(N2C[C@@H]3CCCN[C@@H]3C2)c(F)cc2c(=O)c(C(=O)O)cn(C3CC3)c12 [Moxifloxacin, reference compound]	–	–	–	–	–	–	–	–	–	–	–	–	–	–	–	–	–	–	–	Measured bacterial titer, positive control ([5]; 10 mg/kg intravenously once, 1 h postinfection, 10 mg/kg): 2.36 ± 0.21 Log CFU/g of bone and 2.53 ± 0.39 Log CFU/g of bone and 2.59 ± 0.56 Log CFU/g of bone and 2.46 ± 0.52 Log CFU/g of bone and 2.56 ± 0.64 Log CFU/g of bone and 2.20 ± 0.33 Log CFU/g of bone and 2.32 ± 0.33 Log CFU/g of bone and 2.06 ± 0.04 Log CFU/g of bone
